Reference: patent publication US20250326718A1, “4-PHENYL-2-PYRROLIDINONES AND METHODS OF USING THEREOF” (North Carolina State University, priority 2022, published 2025)
In brackets after ≈: the same amount, converted by molar mass.

Assays:
Format in all cases: cell-based
MSSA (ATCC 25923) = assay: Broth microdilution MIC, MSSA ATCC 25923; conditions: Staphylococcus aureus; Tables 2-4; standardized conditions; read-out: MIC (S. aureus 25923)
MRSA (ATCC 33591) = assay: Broth microdilution MIC, MRSA ATCC 33591; conditions: Staphylococcus aureus; Tables 2-4; standardized conditions
Method: General information—Biological Assays. Methicillin-resistant and methicillin sensitive Staphylococcus aureus (MRSA and MSSA respectively) strains were obtained from the Laboratory of Professor Christian Melander (NCSU) (ATCC BAA 44 and 33591) and Dr. Jessica Gilbertie (ATCC 25923). Bacteria were kept in frozen stocks on glycerol at −80° C. until use. Bacteria was streaked onto tryptic-soy agar for colony isolation. Mueller-Hinton broth (MHB, 211443-BD), tryptic soy broth (TSB, Remel: R455052) and D-glucose (CAS: 492-62-6) were purchased from Fisher Scientific. Tryptic soy agar (TSA, cat. #22091) and Linezolid (cat. #P70014) were purchased from Sigma-Aldrich. Bacteria for biofilm inhibition were cultured overnight in TSB-G (tryptic soy broth with 0.5% glucose supplement) in 96 well plates. All assays were run in duplicate and repeated at least two separate times for MIC assays and at least three separate times for biofilm inhibition. All compounds were dissolved in molecular biology grade DMSO as 10 mM stock solutions. Optical densities were measured using a Thermo Scientific Genesys 20 spectrophotometer. Data for biofilm inhibition were collected using a BioTek ELx808 Microplate Reader. All graphs were generated and analyzed using GraphPad Prism 7.
Broth microdilution method for determination of minimum inhibitory concentrations. As prescribed by the Clinical and Laboratory Standards Institute (CLSI) M07-A8, Vol. 29 (2) MSSA (ATCC 25923) and MRSA (ATCC BAA 44 and 33591) was grown in MHB for 6-8 h; this culture was used to inoculate fresh MHB (5×10^5 CFU/mL). The resulting bacterial suspension was aliquoted (1 mL) into 1.5 mL Eppendorf tubes and compound was added from a 10 mM DMSO stock to achieve the desired initial starting concentration (typically 128 μg/mL). Linezolid (from a 10 mM DMSO stock) was used as a positive control. Inoculated media not treated with compound served as the negative control. The MIC was determined by microbroth dilution following the CLSI guidelines. The MIC was defined as the lowest concentration of antibiotic with no visible growth. The plate was sealed and incubated under stationary conditions at 37° C.
The antimicrobial activity of Compounds 1-15 was assessed initially against MSSA (ATCC 25923) and MRSA (ATCC 33591) strains. It was observed that almost all these compounds precipitated in aqueous solution at concentrations equal or higher than 8-16 μg/mL. In order to obtain preliminary results on the antimicrobial activity for these compounds, the standard conditions of the antimicrobial assays used where modified to favor the water solubility of these compounds.

S. aureus 29213 = assay: Broth microdilution MIC, S. aureus 29213; conditions: Staphylococcus aureus, Tables 3-4, standardized conditions, read-out: MIC (S. aureus 29213)

Row | Compound | MIC (MSSA (ATCC 25923)) | MIC (MRSA (ATCC 33591)) | MIC (S. aureus 29213)
1 | CCC1C(c2ccc(C(F)(F)F)cc2)=C(O)C(=O)N1CCN(CCN)CCN1C(=O)C(O)=C(c2ccc(C(F)(F)F)cc2)C1CC (stereo not drawn) [Compound 39, 1,1′-(((2-aminoethyl)azanediyl)bis(ethane-2,1-diyl))bis(5-ethyl-3-hydroxy-4-(4-(trifluoromethyl)phenyl)-1,5-dihydro-2H-pyrrol-2-one)] | 64 µg/mL (≈ 97.8 µM) | 64 µg/mL (≈ 97.8 µM) | 64 µg/mL (≈ 97.8 µM)
2 | CCC1C(c2ccc(C(F)(F)F)cc2)=C(O)C(=O)N1CCN(CCN1C(=O)C(O)=C(c2ccc(C(F)(F)F)cc2)C1CC)CCN1C(=O)C(O)=C(c2ccc(C(F)(F)F)cc2)C1CC (stereo not drawn) [Compound 40, 1,1′,1″-(nitrilotris(ethane-2,1-diyl))tris(5-ethyl-3-hydroxy-4-(4-(trifluoromethyl)phenyl)-1,5-dihydro-2H-pyrrol-2-one)] | > 128 µg/mL | > 128 µg/mL | > 128 µg/mL
3 | CC1C(c2ccc(C(F)(F)F)cc2)=C(O)C(=O)N1c1ccc(Br)cc1 (stereo not drawn) [Compound 41, 1-(4-Bromophenyl)-3-hydroxy-5-methyl-4-(4-(trifluoromethyl)phenyl)-1,5-dihydro-2H-pyrrol-2-one] | > 128 µg/mL | 32 µg/mL (≈ 77.6 µM) | > 128 µg/mL
4 | CCC1C(c2ccc(C(F)(F)F)cc2)=C(O)C(=O)N1c1ccc(Br)cc1 (stereo not drawn) [Compound 42, 1-(4-Bromophenyl)-5-ethyl-3-hydroxy-4-(4-(trifluoromethyl)phenyl)-1,5-dihydro-2H-pyrrol-2-one] | > 128 µg/mL | > 128 µg/mL | > 128 µg/mL
5 | O=C1C(O)=C(c2ccc(C(F)(F)F)cc2)C(C2CC2)N1c1ccc(Br)cc1 (stereo not drawn) [Compound 43, 1-(4-Bromophenyl)-5-cyclopropyl-3-hydroxy-4-(4-(trifluoromethyl)phenyl)-1,5-dihydro-2H-pyrrol-2-one] | > 128 µg/mL | 64 µg/mL (≈ 146 µM) | > 128 µg/mL
6 | O=C1C(O)=C(c2ccc(C(F)(F)F)cc2)C(CCl)N1c1ccc(Br)cc1 (stereo not drawn) [Compound 44, 1-(4-Bromophenyl)-5-(chloromethyl)-3-hydroxy-4-(4-(trifluoromethyl)phenyl)-1,5-dihydro-2H-pyrrol-2-one] | 64 µg/mL (≈ 143 µM) | 64 µg/mL (≈ 143 µM) | 128 µg/mL (≈ 287 µM)
7 | O=C1C(O)=C(c2ccc(C(F)(F)F)cc2)C(c2cccs2)N1c1ccc(Br)cc1 (stereo not drawn) [Compound 45, 1-(4-Bromophenyl)-3-hydroxy-5-(thiophen-2-yl)-4-(4-(trifluoromethyl)phenyl)-1,5-dihydro-2H-pyrrol-2-one] | > 128 µg/mL | > 128 µg/mL | 128 µg/mL (≈ 266 µM)
8 | O=C1C(O)=C(c2ccc(C(F)(F)F)cc2)C(Cc2ccccc2)N1c1ccc(Br)cc1 (stereo not drawn) [Compound 46, 5-Benzyl-1-(4-bromophenyl)-3-hydroxy-4-(4-(trifluoromethyl)phenyl)-1,5-dihydro-2H-pyrrol-2-one] | > 128 µg/mL | > 128 µg/mL | > 128 µg/mL
9 | O=C1C(O)=C(c2ccc(C(F)(F)F)cc2)C([C@@H](O)c2ccccc2)N1c1ccc(Br)cc1 (stereo partly drawn) [Compound 48, 1-(4-Bromophenyl)-3-hydroxy-5-((S)-hydroxy(phenyl)methyl)-4-(4-(trifluoromethyl)phenyl)-1,5-dihydro-2H-pyrrol-2-one] | 32 to 64 µg/mL (≈ 63.5 to 127 µM) | 32 µg/mL (≈ 63.5 µM) | 16 µg/mL (≈ 31.7 µM)

Further lines, results first:

Row | MIC (MSSA (ATCC 25923)) | MIC (MRSA (ATCC 33591)) | MIC (S. aureus 29213) | Compound
10 | > 128 µg/mL | > 128 µg/mL | > 128 µg/mL | O=C1C(O)=C(c2ccc(C(F)(F)F)cc2)C(C(O)CO)N1c1ccc(Br)cc1 (stereo not drawn) [Compound 49, 1-(4-Bromophenyl)-5-(1,2-dihydroxyethyl)-3-hydroxy-4-(4-(trifluoromethyl)phenyl)-1,5-dihydro-2H-pyrrol-2-one]
11 | > 128 µg/mL | > 128 µg/mL | > 128 µg/mL | CCCCCCN1C(=O)C(O)=C(c2ccc(C(F)(F)F)cc2)C1[C@H](O)c1ccccc1 (stereo partly drawn) [Compound 50, 1-Hexyl-3-hydroxy-5-((R)-hydroxy(phenyl)methyl)-4-(4-(trifluoromethyl)phenyl)-1,5-dihydro-2H-pyrrol-2-one]
12 | 64 µg/mL (≈ 150 µM) | 32 µg/mL (≈ 75.2 µM) | 32 µg/mL (≈ 75.2 µM) | O=C1C(O)=C(c2ccc(C(F)(F)F)cc2)C([C@H](O)c2ccccc2)N1c1ccccc1 (stereo partly drawn) [Compound 51, 3-Hydroxy-5-((R)-hydroxy(phenyl)methyl)-1-phenyl-4-(4-(trifluoromethyl)phenyl)-1,5-dihydro-2H-pyrrol-2-one]
13 | > 128 µg/mL | > 128 µg/mL | > 128 µg/mL | COc1ccc(N2C(=O)C(O)=C(c3ccc(C(F)(F)F)cc3)C2[C@H](O)c2ccccc2)cc1 (stereo partly drawn) [Compound 52, 3-Hydroxy-5-((R)-hydroxy(phenyl)methyl)-1-(4-methoxyphenyl)-4-(4-(trifluoromethyl)phenyl)-1,5-dihydro-2H-pyrrol-2-one]
14 | 16 µg/mL (≈ 36.1 µM) | 128 µg/mL (≈ 289 µM) | 128 µg/mL (≈ 289 µM) | O=C1C(O)=C(c2ccc(C(F)(F)F)cc2)C([C@H](O)c2ccccc2)N1c1ccc(F)cc1 (stereo partly drawn) [Compound 53, 1-(4-Fluorophenyl)-3-hydroxy-5-((R)-hydroxy(phenyl)methyl)-4-(4-(trifluoromethyl)phenyl)-1,5-dihydro-2H-pyrrol-2-one]
15 | 4 µg/mL (≈ 8.7 µM) | 4 to 8 µg/mL (≈ 8.7 to 17.4 µM) | 4 µg/mL (≈ 8.7 µM) | O=C1C(O)=C(c2ccc(C(F)(F)F)cc2)C([C@H](O)c2ccccc2)N1c1ccc(Cl)cc1 (stereo partly drawn) [Compound 54, 1-(4-Chlorophenyl)-3-hydroxy-5-((R)-hydroxy(phenyl)methyl)-4-(4-(trifluoromethyl)phenyl)-1,5-dihydro-2H-pyrrol-2-one]
16 | 2 to 4 µg/mL (≈ 3.63 to 7.26 µM) | 4 µg/mL (≈ 7.26 µM) | 2 µg/mL (≈ 3.63 µM) | O=C1C(O)=C(c2ccc(C(F)(F)F)cc2)C([C@H](O)c2ccccc2)N1c1ccc(I)cc1 (stereo partly drawn) [Compound 55, 3-Hydroxy-5-((R)-hydroxy(phenyl)methyl)-1-(4-iodophenyl)-4-(4-(trifluoromethyl)phenyl)-1,5-dihydro-2H-pyrrol-2-one]
17 | 2 µg/mL (≈ 4.05 µM) | 2 µg/mL (≈ 4.05 µM) | 2 µg/mL (≈ 4.05 µM) | O=C1C(O)=C(c2ccc(C(F)(F)F)cc2)C([C@H](O)c2ccccc2)N1c1ccc(C(F)(F)F)cc1 (stereo partly drawn) [Compound 56, 3-Hydroxy-5-((R)-hydroxy(phenyl)methyl)-1,4-bis(4-(trifluoromethyl)phenyl)-1,5-dihydro-2H-pyrrol-2-one]
